Experimental data: patent publication US20200129528A1, “METHODS FOR TREATING BLOOD PRESSURE CONDITIONS USING AMINOSTEROL COMPOSITIONS” (Enterin, Inc., priority 2018, published 2020)

Key:
[1] = tested on: IPANs (intrinsic primary afferent neuron); details: perfusion through lumen of isolated bowel segment; cited from earlier work
[2] = tested on: mice with constipation due to overexpression of human αS; details: oral; cited from earlier work
[3] = Pharmacokinetics of orally administered squalamine (ENT-01) in Stage 1; type: in vivo, human; details: PD patients, this study
Method: PK data were collected on the 10 patients enrolled in Stage 1 and 10 patients enrolled in Stage 2 to determine the extent of systemic absorption. In Stage 1, PK data were obtained at each visit, pre-medication, at 1, 2, 4, 8 and 24 hours (Table 10). In Stage 2, PK was measured on days 1 and 6 of the randomization period pre-medication, at 1, 2, 4 and 8 hours (Table 11).
The mean Cmax, Tmax and T1/2 and AUC of the squalamine ion following squalamine (ENT-01) oral dosing for Stage 1 patients. The PK analyses are only approximate, as the lower limit of the validated concentration range was 10 ng/ml; most of the measured concentrations fell below that value. The mean Cmax, Tmax and T1/2 and AUC of the squalamine ion following squalamine (ENT-01) oral dosing for Stage 2 patients. The PK analyses are only approximate, as the lower limit of the validated concentration range was 0.5 ng/ml.

[4] = mice, following systemic administration; into the duodenum through the biliary tract; cited from earlier work
[5] = cited from earlier work

Structure (SMILES): CC(C)[C@@H](CC[C@@H](C)[C@H]1CC[C@H]2[C@@H]3[C@H](O)C[C@H]4C[C@@H](NCCCNCCCCN)CC[C@]4(C)[C@H]3CC[C@]12C)OS(=O)(=O)O [squalamine]
- effect on propulsive peristaltic contractions [1]: increasing the frequency of propulsive peristaltic contractions
- effect on gastro-intestinal motility [2]: stimulates gastro-intestinal motility
- systemic absorption following oral administration [3]: not significantly absorbed into the systemic circulation
- route of clearance [4]: cleared by the liver and excreted as the intact molecule
- drug related GI toxicology ([5]; published clinical trials involving systemic administration): has not been reported
- effect of intravenous administration on gastrointestinal motility ([5]; systemic blood levels one thousand-fold greater than after oral dosing, prior studies): not associated with increased gastrointestinal motility
